# Data published in article PMC10731658 (Chemical Research in Toxicology, 2023).
# Assays:
# HepG2 cells [1] = assay: Intracellular RONS detection with DCFH-DA fluorescent probe; format: cell-based, human; conditions: IC50 concentration
# Experimental: Two different fluorescent dyes, i.e., 2,7-dichlorodihydrofluorescein diacetate (DCFH-DA, Cayman Chemicals Company, Ann Arbor, MI) and dihydroethidium (DHE, Sigma-Aldrich, St. Louis, MO) were utilized for the determination of intracellular levels of RONS after 1, 4, and 24 h of incubation with tested oxime reactivators or TBHP (positive control). Cells incubated with oxime-free DMEM represented untreated control. After the incubation, the experimental medium was removed and replaced with a solution of DCFH-DA or DHE at concentrations of 20 and 5 μmol/L, respectively. The cells were subsequently incubated at 37 °C in a CO2 incubator for 45 min. Afterward, the fluorescence intensity of each well was measured using a Spark multimode microplate reader at an excitation wavelength of 485 nm for DCFH-DA or 528 nm for the DHE probe and an emission wavelength of 535 or 590 nm, respectively. Each experiment was carried out in triplicate and repeated three independent times.
# The toxicological indices IC50 were calculated from control-subtracted triplicates using nonlinear regression (four parameters) using GraphPad Prism 9 software version 9.3.0 (GraphPad Software Inc., San Diego, CA). One-way analysis of variance (ANOVA) followed by Dunnetʼs multiple comparison test was used for RONS, MDA, NP-SH, and NP-SS-NP statistical analysis by GraphPad Prism 9 software, version 9.3.0. Data are expressed as means ± standard deviation (SD) of three independent measurements (n = 3). Significant differences between oxime-treated and untreated control groups (p ≤ 0.05) were marked by an asterisk (*).
# HepG2 cells [2] = assay: Total intracellular MDA by LC-MS/MS; format: cell-based, human; conditions: IC50 concentration
# HepG2 cells [3] = assay: Intracellular nonprotein thiols (NP-SH) by HPLC-UV; format: cell-based, human; conditions: 24 h, IC50 concentration
# Experimental: (§1) The culture medium was removed from a 25 cm^2 culture flask on the day of the experiment, and cells were washed twice with 3 mL of phosphate-buffered saline (PBS; GE Healthcare Life Sciences, South Logan, UT). Subsequently, 3 mL of a plain DMEM medium (negative control) and a DMEM medium containing TBHP (positive control) or individual oximes were added to each flask, and cells were incubated for 1, 4, and 24 h. The concentration of individual oxime and TBHP in the DMEM medium corresponded to the IC50 value. After incubation, the experimental medium was removed, and cells were washed with 3 mL of PBS and harvested by scraping. The resulting suspension was centrifuged at 220g and 21 °C for 5 min (Universal 320R centrifuge, Hettich, Tuttlingen, Germany). The supernatant was removed and dried cell pellets were stored at −80 °C. Each experiment was carried out in three independent replicates.
# (§2) The cell pellets were thawed at room temperature, resuspended in 500 μL of ultrapure water (Millipore Purification System, Merck, Millipore, Darmstadt, Germany), and sonicated for 2 min (2 s cycle, amplitude 20%) in a Q500 homogenizer (QSONICA Sonicators, Newton). Then, the homogenate was divided into three parts: 250 μL for the determination of malondialdehyde (MDA), 100 μL for each determination of nonprotein thiols (NP-SH) and disulfides (NP-SS-NP), and 10 μL for the Bradford protein assay.
# (§3) The HepG2 cell homogenate obtained, as described in Section 2.6, was processed for the determination of intracellular NP-SH and NP-SS-NP, according to Muckova et al.[11] The samples were analyzed using the HPLC system described above equipped with an SPD 20-AV Prominence UV/vis detector. The analysis was carried out on a Phenomenex LUNA C18 column (150 mm × 3 mm, 3 μm, 100 Å) protected with a Security Cartridge (4 mm × 2 mm, Phenomenex, Torrance) at 30 °C and a constant flow rate of 0.330 mL/using the mobile phase consisting of 0.9% aqueous FA (A) and ACN (B) under gradient conditions: 0–1 min 12% B, 1.1–2 min 12–55% B, 2–7 min 55% B, 7.1 min 55% B, and 7.1–10 min 12% B. The detector was set at 326 nm and the sample injection volume was 20 μL.
# HepG2 cells [4] = assay: Intracellular nonprotein disulfides (NP-SS-NP) by HPLC-UV; format: cell-based, human; conditions: IC50 concentration
# Experimental: as §1, §2, §3
# AChE = conditions: in rat blood; read-out: IC50 (concentration required to inhibit AChE activity by 50%); cited from earlier work
# HepG2 cells [5] = conditions: combined exposure with TBHP (IC50 concentration); oximes about 10-fold below IC50; cited from earlier work
# [6] = reference not given; cited from earlier work
# [7] = Colorimetric MTT cell viability assay, 24 h; conditions: human, HepG2 cells, IC50 (cytotoxicity, MTT assay), 24 h incubation
# HepG2 cells [8] = assay: Colorimetric MTT cell viability assay, 24 h; conditions: read-out: IC50 (cytotoxicity, MTT assay), 24 h incubation
SMILES,increase of RONS (DCFH-DA probe) vs negative control (HepG2 cells [1]; 1 h incubation),increase of RONS (DCFH-DA probe) vs negative control (HepG2 cells [1]; 4 h incubation),increase of RONS (DCFH-DA probe) vs negative control (HepG2 cells [1]; 24 h incubation),increase of MDA levels vs untreated control (HepG2 cells [2]; 4 h incubation),increase of MDA levels vs untreated control (HepG2 cells [2]; 24 h exposure),decrease in NP-SH levels vs untreated control (HepG2 cells [3]),increase in NP-SS-NP levels vs untreated control (HepG2 cells [4]; 1 h),increase in NP-SS-NP levels vs untreated control (HepG2 cells [4]; 4 h),increase in NP-SS-NP levels vs untreated control (HepG2 cells [4]; 24 h),IC50 (AChE),increased production of ROS (HepG2 cells [5]),log P [6],IC50 at 24 h [7],IC50 (HepG2 cells [8])
"NC(=O)c1cc[n+](CCCC[n+]2ccc(C=NO)cc2)cc1.[Br-].[Br-] [K048, 4-carbamoyl-1-(4-(4-((hydroxyimino)methyl)pyridin-1-ium-1-yl)butyl)pyridin-1-ium dibromide]",146%,193%,115%,17.2%,35.4%,11.4%,34.8%,54.8%,61.5%,~0.643 mM,25%,−2.61,~30 mM,30.6 mM
"O/N=C/c1cc[n+](CCCC[n+]2ccc(/C=N/O)cc2)cc1 [K074, 1,1′-(butane-1,4-diyl)bis(4((hydroxyimino)methyl)pyridine-1-ium) dibromide]",171%,244%,117%,23.6%,36.1%,11.6%,42.8%,52.4%,72.3%,~0.066 mM,16%,−1.74,~27 mM,27.2 mM
